Results as given in patent US20090048112A1, “Novel Herbicides” (SYNGENTA LIMITED, priority 2005, published 2009).

Assays:
[1] = tested on: Stellaria media (chickweed); experiment: Example B2: herbicidal action post emergence, 500 g/ha; type: in vivo; settings: applied to the foliage, 13 days after application, 0 is no damage to plants, 100 is plants completely dead
Protocol: (§1) Monocotyledonous and dicotyledonous test plants were sown in seed trays in standard compost and were grown for eight days. The trays were watered twice daily or as required. The chemicals were applied by track sprayer to the foliage. The application was carried out with an aqueous suspension of the test substances, prepared as a formulation of 50% acetone in water with 0.5% Tween 20™ (CAS RN 9005-64-5), to achieve a field equivalent of 1000 l/ha. The application rate of the test substances was 500 g/ha. A visual assessment of the herbicidal effect was made at 13 days after application. The following percentage scale was used for assessment: 0, 5, 10, 20, 30, 40, 50, 60, 70, 80, 90, 95, 100 (where O is no damage to plants and 100 is plants are completely dead).

[2] = tested on: Echinochloa crus-galli (barnyard grass); experiment: as above; type: in vivo; settings: applied to the foliage, 13 days after application, 0 is no damage to plants, 100 is plants completely dead
Protocol: as §1

[3] = tested on: Alopecurus myosuroides (slender foxtail); experiment: as above; type: in vivo; settings: applied to the foliage, 13 days after application, 0 is no damage to plants, 100 is plants completely dead
Protocol: as §1

[4] = tested on: Amaranthus retroflexus (redroot pigweed); experiment: as above; type: in vivo; settings: applied to the foliage, 13 days after application, 0 is no damage to plants, 100 is plants completely dead
Protocol: as §1

[5] = tested on: Monocotyledonous and dicotyledonous test plants; experiment: Example B1: herbicidal action prior to emergence (pre-emergence), 500 g/ha; type: in vivo; settings: 13 days after application, 0 = no damage, 100 = plants completely dead; for ALOMY herbicidal effect (visual assessment, percentage scale): Alopecurus myosuroides (slender foxtail); for AMARE herbicidal effect (visual assessment, percentage scale): Amaranthus retroflexus (redroot pigweed); for ECHCG herbicidal effect (visual assessment, percentage scale): Echinochloa crus-galli (barnyard grass); for STEME herbicidal effect (visual assessment, percentage scale): Stellaria media (chickweed)
Protocol: as §1, with “standard compost.” for “standard compost and were grown for eight days.”, “sprayer at” for “sprayer to”, “the soil surface.” for “the foliage.”, “(where 0” for “(where O”

[6] = tested on: Monocotyledonous and dicotyledonous test plants; experiment: Example B3: herbicidal action prior to emergence (pre-emergence), 96-cell seed trays, 1000 g/ha; type: in vivo; parameters: key: 0 is no damage to plant; 5 is total damage to plant; settings: 9 days after application
How it was run: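 Soil-surface pre-emergence spray at 1000 g/ha in water with 10% DMSO (1000 l/ha equivalent), applied one day after sowing in sterilised soil. Plants kept in a climatic chamber (24/19 °C day/night, 13 h light, 50-60% humidity); damage scored visually 0-5 at 9 days after application.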

Row | melting point [°C] | Structure (SMILES) | STEME, visual assessment of the herbicidal effect [1] [%] | ECHCG, visual assessment of the herbicidal effect [2] [%] | ALOMY, visual assessment of the herbicidal effect [3] [%] | AMARE, visual assessment of the herbicidal effect [4] [%] | ALOMY herbicidal effect (visual assessment, percentage scale) [5] [%] | AMARE herbicidal effect (visual assessment, percentage scale) [5] [%] | ECHCG herbicidal effect (visual assessment, percentage scale) [5] [%] | STEME herbicidal effect (visual assessment, percentage scale) [5] [%] | AGSTE herbicidal effect (visual assessment, scale 0-5) ([6]; Agrostis tenius (Colonial bentgrass)) | AMARE herbicidal effect (visual assessment, scale 0-5) ([6]; Amaranthus retroflexus (redroot pigweed)) | DIGSA herbicidal effect (visual assessment, scale 0-5) ([6]; Digitaria sanguinalis (hairy finger-grass)) | POATR herbicidal effect (visual assessment, scale 0-5) ([6]; Poa trivialis (rough blue grass)) | SETIT herbicidal effect (visual assessment, scale 0-5) ([6]; Setaria italica (foxtail millet))
1 | 186 to 188 | Cn1nc(C(F)(F)F)c(C(F)(F)S(=O)(=O)c2ncc(Br)s2)c1Cl [Compound No. 1.033, 5-bromo-2-[(5-chloro-1-methyl-3-trifluoromethyl-1H-pyrazol-4-yl)-difluoro-methanesulfonyl]-thiazole] |  |  |  |  |  |  |  |  |  |  |  |  | 
2 | 118 to 120 | Cn1nc(C(F)(F)F)c(CSc2ncc(C(N)=O)s2)c1OCC(F)(F)F [1.121, 2-[1-methyl-5-(2,2,2-trifluoro-ethoxy)-3-trifluoromethyl-1H-pyrazol-4-ylmethylsulfanyl]-thiazole-5-carboxylic acid amide] |  |  |  |  |  |  |  |  |  |  |  |  | 
3 |  | Cn1nc(C(F)(F)F)c(CSc2ncc([N+](=O)[O-])s2)c1OCC(F)(F)F [Compound No. 1.061] | 40 | 80 | 40 | 40 | 80 | 100 | 95 | 95 |  |  |  |  | 
4 |  | Cn1nc(C(F)(F)F)c(C(F)(F)S(=O)(=O)c2ncc(Cl)s2)c1OCC(F)(F)F [Compound No. 1.037] | 70 | 20 | 90 | 95 | 60 | 100 | 95 | 95 |  |  |  |  | 
5 |  | COCCOc1c(C[S+]([O-])c2ncc(Cl)s2)c(C(F)(F)F)nn1C (racemic) [1.051] | 70 | 80 | 70 | 70 | 80 | 100 | 70 | 100 |  |  |  |  | 
6 |  | COCCOc1c(CS(=O)(=O)c2ncc(Cl)s2)c(C(F)(F)F)nn1C [1.052] | 10 | 70 | 80 | 50 | 80 | 100 | 95 | 90 |  |  |  |  | 
7 |  | Cn1nc(C(F)(F)F)c(CSc2ncc(Cl)s2)c1OC(F)F [Compound No. 1.056] | 80 | 70 | 95 | 70 | 90 | 95 | 95 | 90 |  |  |  |  | 
8 |  | Cn1nc(C(F)(F)F)c(C[S+]([O-])c2ncc(Br)s2)c1OCC(F)F (racemic) [1.025] | 90 | 80 | 70 | 80 | 95 | 100 | 95 | 90 |  |  |  |  | 
9 |  | CC(c1c(C(F)(F)F)nn(C)c1OCC(F)(F)F)S(=O)(=O)c1ncc(Cl)s1 (racemic) [1.096] | 70 | 80 | 90 | 80 | 95 | 95 | 95 | 95 | 5 | 5 | 5 | 5 | 5
10 | 78 to 79.5 | Cn1nc(C(F)(F)F)c(C(Cl)S(=O)(=O)c2ncc(Br)s2)c1Cl (stereo not shown) [Compound No. 1.030, 5-bromo-2-[chloro-(5-chloro-1-methyl-3-trifluoromethyl-1H-pyrazol-4-yl)-methanesulfonyl]-thiazole] |  |  |  |  |  |  |  |  |  |  |  |  | 
11 |  | Cn1nc(C(F)(F)F)c(CS(=O)(=O)c2ncc(Br)s2)c1Cl [Compound No. 1.006, 5-bromo-2-(5-chloro-1-methyl-3-trifluoromethyl-1H-pyrazol-4-ylmethanesulfonyl)-thiazole] | 0 | 80 | 70 | 30 | 90 | 95 | 95 | 30 |  |  |  |  | 
12 |  | Cn1nc(C(F)(F)F)c(CSc2ncc(Cl)s2)c1OCC(F)(F)F [Compound No. 1.013] | 80 | 50 | 60 | 60 | 95 | 95 | 80 | 95 |  |  |  |  | 
13 |  | Cn1nc(C(F)(F)F)c(CS(=O)(=O)c2ncc(Br)s2)c1OCC(F)F [1.026] | 0 | 70 | 70 | 60 | 60 | 90 | 95 | 0 |  |  |  |  | 
